This data set relates to compound-only thermal shift, SYPRO orange fluorescence, no protein. In words: compound-only thermal shift interference, dose response, artefact control for FGF22 binder project, biophysical, SYPRO orange, qPCR instrument, dry powder samples (AID 743039). The note with it: at 0.16 µM.

Calls of active or inactive are those of the source.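 How the source made its calls: active means fitted curve rises past 0.47 at a concentration no higher than the top valid tested dose; inconclusive means flat curve at a moderate level, or poor fit; inactive means the rest, including signal moving the wrong way.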

Among the data in PubChem BioAssay AID743039 (Broad Institute, 2013) are thermal shift signal, higher = interference values, retold here.

As to `CC(=O)Nc1cccc(C(=O)N/N=C/c2c[nH]c3ccccc23)c1`, the thermal shift signal, higher = interference was 0.019% (inactive).

With `O=C(N/N=C/c1c[nH]c2ccccc12)c1ccc(O)c(O)c1`, the thermal shift signal, higher = interference was 0.065% (inactive).

Turning to `CSc1ccc(/C=N/NC(=O)c2ccc3nc[nH]c3c2)cc1`, the thermal shift signal, higher = interference was 0.305% (inactive).

`O=C(N/N=C/c1ccc(C(F)(F)F)cc1)c1ccc(O)cc1`: the thermal shift signal, higher = interference is -0.028% (inactive).

On to `COc1ccc(-c2nc(-c3ccc(O)cc3O)cs2)cc1OC`, for which the thermal shift signal, higher = interference was 0.011% (inactive).

On to `CC(=O)Nc1ccc(NC(=O)Nc2ccccc2)cc1`, for which the thermal shift signal, higher = interference is 0.246% (inactive).

For `Clc1ccc(Nc2ccc(NCc3ccccc3)nn2)cc1`, the thermal shift signal, higher = interference is -0.178% (inactive).

Regarding `CC(=O)Nc1cccc(NC(=O)c2ccc3[nH]c(C)c(C)c3c2)c1`, the thermal shift signal, higher = interference was -0.227% (inactive).

Turning to `COC(=O)C[C@H]1CC[C@@H]2[C@@H](COc3ccc(NC(=O)Nc4ccc(C#N)cc4)cc3C(=O)N2C)O1`, the thermal shift signal, higher = interference was 0.237% (inactive).

Regarding `COc1cc(/C=N/NC(=O)c2cc3ccccc3[nH]2)ccc1O`, the thermal shift signal, higher = interference was -0.114% (inactive).

`CN(Cc1c(C(=O)N/N=C/c2ccc(O)cc2)nnn1-c1nonc1N)c1ccccc1`: the thermal shift signal, higher = interference was -0.045% (inactive).

For the compound `O=C(O)Cc1ccc(NC(=O)c2ccc(Cl)c(Cl)c2)cc1`, the thermal shift signal, higher = interference is 0.188% (inactive).

Consider `Cc1ccc(OCCCC(=O)Nc2ccc(S(=O)(=O)N3CCOCC3)cc2)cc1`, for which the thermal shift signal, higher = interference was -0.12% (inactive).

With `Nc1cccc(-c2nc3ccc(C(=O)c4ccccc4)cc3[nH]2)c1`, the thermal shift signal, higher = interference was 0.145% (inactive).

As for `O=C(Nc1ccc(S(=O)(=O)N2CCCC2)cc1)c1ccccc1`, the thermal shift signal, higher = interference is -0.209% (inactive).

Take `O=C(Nc1ccc(S(=O)(=O)N2CCCC2)cc1)c1cccs1`: the thermal shift signal, higher = interference was -0.157% (inactive).

Consider `CCN1C/C(=C/c2cccs2)c2nc3ccccc3c(C(=O)O)c2C1`, for which the thermal shift signal, higher = interference is 0.048% (inactive).

Turning to `O=C(Nc1ccc(Cl)cc1)N[C@@H]1CC[C@@H](CCNS(=O)(=O)c2ccccc2F)O[C@H]1CO`, the thermal shift signal, higher = interference was -0.043% (inactive).

For `Cc1ccc(S(=O)(=O)N2C[C@@H](O)COC[C@@H]3O[C@@H](CC(=O)NCc4ccc(Cl)c(Cl)c4)CC[C@H]32)cc1`, the thermal shift signal, higher = interference is 0.045% (inactive).

Consider `CCOc1cccc(C(=O)Nc2ccc3[nH]ncc3c2)c1`, for which the thermal shift signal, higher = interference is -0.066% (inactive).

For the compound `O=C(N/N=C/c1c[nH]c2ccccc12)c1cccc(O)c1`, the thermal shift signal, higher = interference was 0.355% (inactive).

Consider `O=S(=O)(Nc1nnc(C(F)(F)F)s1)c1ccc(Cl)cc1`, for which the thermal shift signal, higher = interference is -0.081% (inactive).

`Cc1[nH]c2ccc(C(=O)OCC(=O)Nc3cccc(S(N)(=O)=O)c3)cc2c1C`: the thermal shift signal, higher = interference is -0.322% (inactive).

In the case of `COc1ccc(C)cc1NS(=O)(=O)c1ccc(NS(=O)(=O)c2ccc(NC(C)=O)cc2)cc1`, the thermal shift signal, higher = interference is -0.005% (inactive).

For the compound `COC(=O)C1=C(CS(=O)(=O)c2cc(OC)ccc2OC)NC(=O)NC1c1ccc(O)c(OC)c1` (stereo not given), the thermal shift signal, higher = interference is -0.182% (inactive).

With `COC(=O)C[C@H]1CC[C@@H]2[C@@H](COc3ccc(NC(=O)Nc4cccc(C#N)c4)cc3C(=O)N2C)O1`, the thermal shift signal, higher = interference was 0.097% (inactive).

For `O=C(C[C@H]1CC[C@@H]2[C@H](COC[C@H](O)CN2S(=O)(=O)c2cccc(Cl)c2)O1)Nc1ccccc1`, the thermal shift signal, higher = interference is -0.063% (inactive).

Regarding `CCNC(=O)C[C@@H]1CC[C@H]2[C@H](COc3ccc(NC(=O)Nc4ccc(Cl)cc4)cc3C(=O)N2C)O1`, the thermal shift signal, higher = interference was 0.052% (inactive).

For the compound `O=C(Nc1cc(Cl)cc(Cl)c1)N[C@@H]1CC[C@@H](CCNS(=O)(=O)c2cccc(F)c2)O[C@@H]1CO`, the thermal shift signal, higher = interference is 0.004% (inactive).

For the compound `COc1ccc(Nc2nc3ccc(OC)cc3s2)cc1`, the thermal shift signal, higher = interference was 0.188% (inactive).

On to `CCN1C(=O)C(CC(=O)Nc2ccc(F)cc2)N(Cc2ccc3c(c2)OCO3)C1=S` (stereo not given), for which the thermal shift signal, higher = interference was -0.165% (inactive).

In the case of `CCCNC(=O)COC(=O)c1ccccc1C(=O)N(C)C1CCCCC1`, the thermal shift signal, higher = interference was -0.157% (inactive).

Turning to `O=C(Nc1nccs1)C1CC(=O)N(c2ccc(F)cc2)C1` (stereo not given), the thermal shift signal, higher = interference was -0.148% (inactive).

`Cc1ccn(-c2ccc(NC(=O)c3cccs3)cc2)n1`: the thermal shift signal, higher = interference was -0.057% (inactive).

For `O=C(NCCc1c[nH]c2ccccc12)c1ccc(Cl)cc1`, the thermal shift signal, higher = interference is 0.048% (inactive).

Turning to `O=C(N/N=C/c1c[nH]c2ccccc12)c1cccc(Cl)c1`, the thermal shift signal, higher = interference was 0.069% (inactive).

On to `Nc1ccc(C(=O)N/N=C/c2c[nH]c3ccccc23)cc1`, for which the thermal shift signal, higher = interference is 0.042% (inactive).

In the case of `O=C(Nc1cc(Cl)cc(Cl)c1)N[C@@H]1CC[C@@H](CCNS(=O)(=O)c2cccc(F)c2)O[C@H]1CO`, the thermal shift signal, higher = interference is 0.061% (inactive).

With `O=C(Nc1ccc(S(=O)(=O)N2CCOCC2)cc1)c1ccc(F)cc1`, the thermal shift signal, higher = interference was -0.05% (inactive).

`Cc1ccc(S(=O)(=O)N2C[C@H](O)COC[C@H]3O[C@H](CC(=O)NCc4ccc(Cl)c(Cl)c4)CC[C@@H]32)cc1`: the thermal shift signal, higher = interference was 0.168% (inactive).

Regarding `CC(=O)c1ccc(NC(=O)Nc2cccnc2)cc1`, the thermal shift signal, higher = interference was 0.235% (inactive).

Turning to `O=S1(=O)N=C(N(Cc2cccs2)c2ccc(O)cc2)c2ccccc21`, the thermal shift signal, higher = interference was 0.057% (inactive).

`O=C(N/N=C/c1cccc(Oc2ccccc2)c1)c1cccc(O)c1`: the thermal shift signal, higher = interference is -0.026% (inactive).

With `CCc1cc(-c2n[nH]c(C)c2-c2ccc3c(c2)OCCO3)c(O)cc1O`, the thermal shift signal, higher = interference was -0.093% (inactive).

Take `Cc1cc(NC(=O)Nc2ccc3c(ccn3C)c2)sn1`: the thermal shift signal, higher = interference was 0.052% (inactive).

Take `Cc1[nH]c2ccccc2c1C(=O)NS(=O)(=O)Nc1ccc(Cl)cc1`: the thermal shift signal, higher = interference was -0.148% (inactive).

For `CCc1cc(-c2[nH]ncc2-c2ccc3c(c2)OCCO3)c(O)cc1O`, the thermal shift signal, higher = interference is -0.049% (inactive).

Consider `CC(C)c1c(C(=O)N/N=C/c2c[nH]c3ccccc23)nnn1-c1nonc1N`, for which the thermal shift signal, higher = interference is -0.009% (inactive).

Consider `Cc1cc(C(=O)N/N=C/c2c[nH]c3ccccc23)cs1`, for which the thermal shift signal, higher = interference was 0.145% (inactive).

`O=C(N/N=C/c1c[nH]c2ccccc12)c1cccs1`: the thermal shift signal, higher = interference was -0.182% (inactive).
